The source of these data is US20250302394A1, “QUANTITATIVE MAGNETIC RESONANCE IMAGING AND TUMOR FORECASTING” (priority 2021, published 2025).

Structures are written as SMILES. Several values for one entry are separate records, joined by “and”; a condition that tells them apart may be missing. Equal values may be shown once. Read-outs that look alike come from different tables or passages of the source.

This assay concerns TNBC.

`O=P1(N(CCCl)CCCl)NCCCO1` (stereo not drawn) [cyclophosphamide]: the “median calibrated efficacy rate α of the drug” value is 0.60 day⁻¹ and 0.34 day⁻¹.

For the molecule `COc1cccc2c1C(=O)c1c(O)c3c(c(O)c1C2=O)C[C@@](O)(C(=O)CO)C[C@@H]3O[C@H]1C[C@H](N)[C@H](O)[C@H](C)O1` [doxorubicin], the “median calibrated efficacy rate α of the drug” value was determined as 0.47 day⁻¹ (good-response patient (100% shrinkage of tumor volume at completion of A/C), Framework 1) and 0.24 day⁻¹ (poor-response patient (33% shrinkage of tumor volume at completion of A/C), Framework 1).
